Assays:
KDM5B = target: T1, KDM5B (Homo sapiens, UniProt Q9UGL1); assay: KDM5B enzymatic assay (CisBio HTRF); type: biochemical
T1 construct: purchased Reaction Biology Corp (assay run there as a contract service)
Procedure: KDM5A and 5B were tested using CisBio HTRF assay platform by Reaction Biology Corp (Malvern, PA). All concentrations are final unless noted otherwise. Inhibitors were pre-incubated with 2.5 nM KDM5A or 1.2 nM KDM5B in a 5 μL reaction mixture containing 50 mM HEPES (pH 7.5), 50 mM NaCl, 0.01% Tween 20, 0.01% BSA for 15 min temperature. The reaction was initiated by addition of 5 μL of 50 nM Biotin-H3K4me3 and incubated with gentle shaking for 45 min at RT. The reaction was quenched with 10 mM EDTA and 200 mM potassium fluoride. Upon addition of Eu-Antibody and Streptavidine-XL665, the mixture was incubated for 2 hours in the dark. The fluorescence resonance energy transfer was measured using an excitation wavelength of 320 nm and emission wavelength of 665 nm on an Envision plate reader (Perkin Elmer).
(§1) Data was analyzed using GraphPad Prism 6.0 (La Jolla, CA). […] IC50 values were calculated as an average of at least two independent experiments.

KDM2B = target: T2, KDM2B (Homo sapiens, UniProt Q8NHM5); assay: KDM2B enzymatic assay (AlphaLISA); type: biochemical
T2 sequence (Q8NHM5 1-1336): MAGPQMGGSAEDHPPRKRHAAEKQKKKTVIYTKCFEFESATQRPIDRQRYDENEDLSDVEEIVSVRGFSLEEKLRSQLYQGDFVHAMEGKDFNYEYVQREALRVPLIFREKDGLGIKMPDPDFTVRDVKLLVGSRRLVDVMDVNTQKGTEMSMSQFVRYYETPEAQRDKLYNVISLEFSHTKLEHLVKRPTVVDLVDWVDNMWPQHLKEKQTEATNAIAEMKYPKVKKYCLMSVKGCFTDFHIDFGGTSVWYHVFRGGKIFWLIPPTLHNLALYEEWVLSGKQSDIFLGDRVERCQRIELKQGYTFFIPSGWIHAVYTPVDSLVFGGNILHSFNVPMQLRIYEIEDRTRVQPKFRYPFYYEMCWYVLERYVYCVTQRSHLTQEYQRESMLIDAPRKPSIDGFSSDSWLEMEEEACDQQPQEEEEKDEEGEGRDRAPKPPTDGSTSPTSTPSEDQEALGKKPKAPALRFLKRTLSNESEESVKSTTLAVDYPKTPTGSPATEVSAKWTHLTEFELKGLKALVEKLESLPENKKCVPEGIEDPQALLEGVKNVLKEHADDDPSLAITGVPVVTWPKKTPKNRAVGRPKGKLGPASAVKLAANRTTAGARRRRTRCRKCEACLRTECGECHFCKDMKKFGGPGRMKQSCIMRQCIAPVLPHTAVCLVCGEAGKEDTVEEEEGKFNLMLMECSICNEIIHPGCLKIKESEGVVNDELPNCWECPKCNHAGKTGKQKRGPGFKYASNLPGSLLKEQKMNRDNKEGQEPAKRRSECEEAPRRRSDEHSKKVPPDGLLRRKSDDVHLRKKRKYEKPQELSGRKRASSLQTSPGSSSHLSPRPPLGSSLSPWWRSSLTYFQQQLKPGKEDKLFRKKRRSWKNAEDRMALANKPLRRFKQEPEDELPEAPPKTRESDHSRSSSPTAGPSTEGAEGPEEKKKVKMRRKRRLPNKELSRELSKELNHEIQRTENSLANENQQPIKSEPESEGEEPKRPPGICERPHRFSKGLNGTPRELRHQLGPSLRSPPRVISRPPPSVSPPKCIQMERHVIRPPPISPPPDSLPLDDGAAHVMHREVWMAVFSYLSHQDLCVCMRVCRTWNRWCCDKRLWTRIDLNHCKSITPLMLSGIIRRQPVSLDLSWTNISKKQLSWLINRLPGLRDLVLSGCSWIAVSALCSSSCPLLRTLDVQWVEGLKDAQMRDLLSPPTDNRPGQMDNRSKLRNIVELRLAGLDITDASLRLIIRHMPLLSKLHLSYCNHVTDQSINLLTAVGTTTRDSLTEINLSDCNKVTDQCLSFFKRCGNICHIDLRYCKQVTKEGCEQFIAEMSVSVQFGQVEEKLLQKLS
Procedure: The following assay protocol was used for all histone demethylases tested except KDM1A, KDM5A, B, and D, which are described below. Compounds were serially diluted into a 384-well Alpha plate as a DMSO solution and mixed with 5 μL reaction buffer (buffer A) containing 50 mM HEPES (pH 7.0), 0.1% BSA, and 0.003% Tween-20. The enzyme of interest was pre-incubated with 15 μM of Fe^2+ for 10 min (except 30 min for KDM2B) in reaction buffer A. 5 μL of the enzyme mixture was added to each of the compound-containing wells and incubated for 10 min. The reaction was started by addition of a 5 μL mixture containing 300 nM peptide substrate, 75 μM L-ascorbic acid, and 30 μM α-ketoglutarate in buffer A. This final 15 μL of reaction mixture was incubated for 20 min for KDM5B and 1 hour for the other KDM enzymes. The reaction was quenched with 10 μL of diluted AlphaLISA Acceptor beads (1:400) in Epigenetics Buffer and incubated for 60 min. The Donor beads were diluted 1:400 into Epigenetics Buffer in the dark and 10 μL of this was added to each well and incubated for another 60 min in the dark. The assay plates were read on an Enspire plate reader (PerkinElmer) using a standard AlphaLISA program.
as §1

KDM enzymes = assay: KDM enzyme panel, selectivity across KDM families; type: biochemical, human
Procedure: The following assay protocol was used for all histone demethylases tested except KDM1A, KDM5A, B, and D, which are described below. Compounds were serially diluted into a 384-well Alpha plate as a DMSO solution and mixed with 5 μL reaction buffer (buffer A) containing 50 mM HEPES (pH 7.0), 0.1% BSA, and 0.003% Tween-20. The enzyme of interest was pre-incubated with 15 μM of Fe^2+ for 10 min (except 30 min for KDM2B) in reaction buffer A. 5 μL of the enzyme mixture was added to each of the compound-containing wells and incubated for 10 min. […] The assay plates were read on an Enspire plate reader (PerkinElmer) using a standard AlphaLISA program.
KDM5A and 5B were tested using CisBio HTRF assay platform by Reaction Biology Corp (Malvern, PA). […] The fluorescence resonance energy transfer was measured using an excitation wavelength of 320 nm and emission wavelength of 665 nm on an Envision plate reader (Perkin Elmer). […]
The KDM1 assay was conducted in the presence of […] but without Fe(II) or ascorbic acid. […] The assay plates were read on an Enspire plate reader (PerkinElmer) using a standard AlphaLISA program.
as §1

[1] = type: in vivo, human
Source text: Nevertheless, any further clinical evaluation of KMD5 inhibitors in other therapeutic areas should pay close attention to hepatotoxic effects, which might me associated with inhibition of the biologic target even at low levels of engagement.
For the clinical studies mentioned above, all patients signed an informed consent form before screening and in accordance with local regulatory and ethics committee requirements.

T1 sequence (Q9UGL1 whole entry): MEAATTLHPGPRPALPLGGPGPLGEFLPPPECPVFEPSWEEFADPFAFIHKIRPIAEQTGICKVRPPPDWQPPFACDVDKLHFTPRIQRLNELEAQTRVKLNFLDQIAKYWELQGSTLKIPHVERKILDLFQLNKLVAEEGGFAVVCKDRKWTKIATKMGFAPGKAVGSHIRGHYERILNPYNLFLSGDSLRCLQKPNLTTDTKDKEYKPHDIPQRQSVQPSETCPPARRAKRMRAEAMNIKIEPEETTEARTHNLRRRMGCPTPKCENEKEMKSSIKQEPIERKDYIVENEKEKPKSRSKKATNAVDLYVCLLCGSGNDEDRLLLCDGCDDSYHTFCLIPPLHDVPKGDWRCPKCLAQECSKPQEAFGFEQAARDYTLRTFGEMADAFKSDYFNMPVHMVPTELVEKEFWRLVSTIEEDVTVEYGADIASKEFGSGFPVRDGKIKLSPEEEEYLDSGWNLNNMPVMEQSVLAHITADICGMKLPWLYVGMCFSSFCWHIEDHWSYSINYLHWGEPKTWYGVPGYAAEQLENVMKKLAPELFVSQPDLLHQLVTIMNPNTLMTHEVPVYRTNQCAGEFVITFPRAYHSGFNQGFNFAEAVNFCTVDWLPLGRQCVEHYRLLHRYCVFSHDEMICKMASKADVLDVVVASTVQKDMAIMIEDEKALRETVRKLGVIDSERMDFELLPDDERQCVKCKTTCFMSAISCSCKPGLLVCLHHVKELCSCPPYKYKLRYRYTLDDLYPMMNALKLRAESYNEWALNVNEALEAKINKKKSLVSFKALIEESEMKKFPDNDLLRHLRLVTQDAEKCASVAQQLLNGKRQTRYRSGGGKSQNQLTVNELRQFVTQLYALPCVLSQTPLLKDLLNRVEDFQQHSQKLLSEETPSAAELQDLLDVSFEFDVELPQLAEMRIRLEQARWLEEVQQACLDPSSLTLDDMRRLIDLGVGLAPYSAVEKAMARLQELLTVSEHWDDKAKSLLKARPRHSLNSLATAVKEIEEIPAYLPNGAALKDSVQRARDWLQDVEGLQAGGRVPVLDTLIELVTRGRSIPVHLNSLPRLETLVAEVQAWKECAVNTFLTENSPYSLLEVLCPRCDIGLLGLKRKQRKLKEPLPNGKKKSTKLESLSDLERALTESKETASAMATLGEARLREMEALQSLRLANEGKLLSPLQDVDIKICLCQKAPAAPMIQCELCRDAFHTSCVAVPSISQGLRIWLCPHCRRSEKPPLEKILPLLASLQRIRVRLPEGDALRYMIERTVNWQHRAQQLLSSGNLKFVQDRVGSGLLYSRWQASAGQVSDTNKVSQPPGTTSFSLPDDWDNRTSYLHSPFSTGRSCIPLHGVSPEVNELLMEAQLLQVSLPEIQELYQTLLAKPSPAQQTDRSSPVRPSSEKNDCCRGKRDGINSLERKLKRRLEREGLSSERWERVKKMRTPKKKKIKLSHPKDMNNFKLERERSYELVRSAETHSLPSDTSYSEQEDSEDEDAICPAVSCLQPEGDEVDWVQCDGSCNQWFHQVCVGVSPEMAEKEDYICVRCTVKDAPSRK

SMILES | Fold Selectivity Compared to KDM5A (KDM5B; IC50 of KDM5B over KDM5A) [fold] | IC50 (KDM5B; enzyme concentration 1.2 nM, IC50 lower than enzyme concentration, likely underestimates potency) [nM] | Fold Selectivity Compared to KDM5A (KDM2B; IC50 of KDM2B over KDM5A) | IC50 (KDM2B; enzyme concentration 2 nM) [nM] | fold selectivity for KDM5A and KDM5B over members of the KDM4 family (KDM enzymes; KDM4A –C) [fold] | fold selectivity over members of the other KDM enzyme families tested (KDM enzymes; printed as from > 1,100- to > 278,000-fold, relative to KDM5A) | HBV antigen level decreases ([1]; HBV patients, to be published elsewhere) | liver toxicity ([1]; human, in vivo)
CCN(CCN(C)C)C(=O)CNCc1cc(C(=O)O)ccn1 [GS-080] | 1 | 0.38 | > 1,720 fold | 620 | ≥ 13 | > 1,100 fold |  | 
CCOC(=O)c1ccnc(CNCC(=O)N(CC)CCN(C)C)c1 [GS-5801] |  |  |  |  |  |  | absence of any HBV antigen level decreases | dose limiting, reversible liver toxicity
